The results in this text go back to PubChem BioAssay AID179 (DTP/NCI, 2004).

Calls of active or inactive are those of the source.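 Rule for the calls: active = compounds giving half or more protection of infected cells from virus-caused growth loss, again on retest; inactive = the rest.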

The experiment deals with CEM cells HIV-1 protection, formazan growth assay. Put plainly: NCI AIDS Antiviral Assay. The note with it: for IC50: measured here: growth of uninfected CEM cells. In outline:
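Human CEM cells, uninfected and HIV-1-infected, exposed to five drug concentrations; growth measured by soluble formazan assay and scored as percent protection from infection, with protecting compounds retested.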

For orientation: EC50 means the concentration that produces a half-maximal response. For orientation: IC50 means the concentration that gives 50% inhibition.

For `C=C1C(OC)O[C@@H]2O[C@@]3(C)CC[C@H]4[C@H](C)CC[C@@H]1[C@@]24O3` (stereo partly drawn), the EC50 is more than 200 µM and the IC50 was more than 200 µM.

For the compound `N=CN=CC(=S)O[C@@H]1C(=O)N2CCC[C@@]23CCCC[C@@H]13`, the EC50 was more than 25.1 µM and the IC50 was more than 25.1 µM.

As for `O=c1/c(=C/c2ccc(Cl)cc2Cl)sc2nc3ccccc3n12`, the result was inactive.

Turning to `COC(=O)CCC(=O)Nc1cccc(C(F)(F)F)c1`, the EC50 was more than 129 µM and the IC50 was more than 129 µM.

Turning to `C1=C(c2ccccc2)N2CCN=C2S1`, the EC50 was more than 200 µM and the IC50 was determined as 37.2 µM.

As to `S=C(N/N=C\C=N/NC(=S)N1CCCCC1)N1CCCCC1`, the EC50 was more than 2 µM and the IC50 turned out to be 0.363 µM.

As for `CCSSC12CCCN1C(=O)C1CCCN1C2=O` (stereo not drawn), the EC50 is more than 200 µM and the IC50 was determined as 15.8 µM.

Take `CCOCNC=O`: the EC50 was more than 2400 µM and the IC50 stood at 1480 µM.

For `O=c1oc2c(-c3ccccc3)n[nH]c(=O)c2c2c1CCCC2`, the EC50 was more than 170 µM and the IC50 was more than 170 µM.

`CCCCCCCCCCCCCCCC(=O)NCC(COP(=O)([O-])OCC[N+](C)(C)C)OC` (stereo not drawn): the outcome was inactive.

`CC1=NN2C(c3ccc(C)cc3)=CSC2=NC(C)(C)C1`: the EC50 was more than 174 µM and the IC50 is 141 µM.

As for `CCOC(=O)C(Cc1ccc2c(c1)CCC2)Cc1ccc2c(c1)CCC2`, the EC50 is more than 200 µM and the IC50 stood at 1.62 µM.

With `Oc1ccc(-c2nc3ccccc3s2)c(O)c1`, the EC50 was more than 148 µM and the concentration for half-maximal inhibition (IC50) came to 27.5 µM.

`O=c1c(-c2ccc(O)c(O)c2)coc2cc(O)c(O)cc12`: the EC50 was more than 200 µM and the IC50 amounted to 24.5 µM.

On to `COP(=O)(/C=C/c1cc(C(=O)OCc2ccccc2)n(S(=O)(=O)c2ccccc2)c1)OC`, for which the 50% effective concentration (EC50) is 145 µM and the IC50 was more than 200 µM.

Consider `COc1cc2ccc(=O)oc2cc1O`, for which the EC50 was more than 339 µM and the IC50 is 55 µM.

In the case of `COC(=O)c1ccc(CS(=O)(=O)c2ccccc2)cc1`, the EC50 is more than 12.9 µM and the IC50 is more than 12.9 µM.

As for `N/N=C(/c1ccccc1)c1cccc([N+](=O)[O-])c1`, the EC50 was more than 200 µM and the IC50 was found to be 166 µM.

As to `CC1(c2ccccc2)Oc2ccccc2-n2cccc2C1=O` (stereo not drawn), the EC50 is 2.4 µM and the IC50 is 12.9 µM.

Take `CCCOCN1COCN=C1NC#N`: the EC50 is more than 447 µM and the IC50 was determined as 417 µM.

On to `Cc1nn(C(=O)c2ccncc2)c2c1C(c1ccccc1O)SC(N)=N2` (stereo not drawn), for which the EC50 was 85.1 µM and the IC50 amounted to 148 µM.

Consider `CS(=O)(=O)N1CC(CCl)c2ccc([N+](=O)[O-])cc21` (stereo not drawn), for which the EC50 is 91.2 µM and the IC50 was more than 200 µM.

In the case of `CC1(C)C(c2ccccc2)=[N+]([O-])C(C)(C)N1O`, the EC50 is more than 200 µM and the IC50 came out at 170 µM.

`CC(=NNC(=S)Nc1cccc(C)c1)c1cccc(C(C)=NNC(=S)Nc2cccc(C)c2)n1`: the EC50 is more than 200 µM and the IC50 was found to be 27.5 µM.

Take `Cc1cc(N(CCC#N)S(C)(=O)=O)ccc1C=O`: the EC50 is more than 933 µM and the IC50 was more than 933 µM.

In the case of `N#Cc1cc2c(n(NS(=O)(=O)c3ccccc3)c1=O)CCC2`, the EC50 was more than 200 µM and the IC50 is more than 200 µM.

For `CCC1=C(C)/C(=C/c2[nH]c(CBr)c(CC)c2C)N=C1CBr`, the outcome was inactive.

As for `C/C(C=O)=C\c1ccc(F)cc1`, the EC50 was more than 219 µM and the IC50 was more than 219 µM.

Take `O=C(O)CCCCCCC[C@H]1S[C@H]1CCCCCCO`: the outcome was inactive.

`O=C(O)C1C2CC3CC2CC31` (stereo not drawn): the result was inactive.

In the case of `CC1=NC(=Cc2ccccc2O)C(=O)N1n1c(-c2ccccc2)nc2ccccc2c1=O`, the EC50 was more than 200 µM and the IC50 came to 12.6 µM.

As for `Cc1cc2nnn(C3CCCCO3)c2cc1C` (stereo not drawn), the EC50 is more than 200 µM and the IC50 was determined as 174 µM.

With `Cn1c(O)c(N=Nc2ccccc2[N+](=O)[O-])c2ccccc21`, the EC50 is more than 200 µM and the IC50 was more than 200 µM.

As for `CC1=NN(C(=O)c2ccc(Cl)cc2)C(=O)/C1=C/c1ccc(O)cc1`, the EC50 was more than 15.1 µM and the IC50 was more than 15.1 µM.

`O=C(O)[C@H](NS(=O)(=O)c1ccc(F)cc1)c1ccccc1`: the result was inactive.

`CC(=O)OCCn1c([N+](=O)[O-])cnc1/C=[N+](/[O-])CCO`: the outcome was inactive.

Turning to `O=C1c2ccccc2C(=O)c2c1ccc1c2N=C(c2ccc(F)cc2)CC(c2ccc(Cl)c(Cl)c2)N1` (stereo not drawn), the EC50 was more than 14.1 µM and the IC50 is more than 14.1 µM.

With `C=C(C)C(C)(C)n1[nH]c(=O)n(-c2ccccc2)c1=O`, the EC50 was more than 200 µM and the IC50 was more than 200 µM.

Consider `O=[N+]([O-])c1ccc2n[nH]nc2c1`, for which the EC50 was more than 200 µM and the IC50 turned out to be 182 µM.

As to `CCCCCCCCC1=C(OC)C(=O)c2ccc(Cl)nc2C1=O`, the outcome was inactive.

For the compound `S=C(N/N=C/c1ccccc1)NC1CC(c2ccccc2)Oc2ccccc21` (stereo not drawn), the result was inactive.

For the compound `C[C@H](NC(=O)n1c2ccccc2c2ccccc21)C(=O)O`, the EC50 is more than 891 µM and the IC50 was 234 µM.

As for `COc1cccc(N=N/C(=N\NC(=O)c2cc(Br)ccc2O)c2ccc(N(CCC#N)CCC#N)cc2OC)c1`, the EC50 was more than 100 µM and the half-maximal inhibitory concentration (IC50) was determined as 13.5 µM.

Turning to `Cc1nc(-n2nc(-c3ccccc3)cc2-c2ccccc2)sc1C(=O)/C=C/c1ccc(Cl)cc1`, the EC50 is more than 14.8 µM and the IC50 was more than 14.8 µM.

Regarding `Cc1ccc2c(c1)C1(C)c3cc(C)ccc3SP1S2` (stereo not drawn), the EC50 was more than 12.6 µM and the IC50 was more than 12.6 µM.

Regarding `C=CC[C@H](C)CCC(=O)N1[C@H]2CC3CC[C@@]2(CS1(=O)=O)C3(C)C`, the EC50 is more than 200 µM and the concentration for half-maximal inhibition (IC50) turned out to be 75.9 µM.

With `COc1ccccc1/C=C(/C(=O)c1ccccc1)c1ccccc1`, the EC50 was more than 8.71 µM and the IC50 is more than 8.71 µM.

On to `O=c1nc2c(c(-c3ccccc3Cl)[nH]1)COC/C2=C\c1ccccc1Cl`, for which the EC50 is more than 200 µM and the IC50 was found to be 89.1 µM.

With `CCc1n[nH]c(=O)n1N1C(=O)C2CC=CCC2C1=O` (stereo not drawn), the EC50 is more than 200 µM and the IC50 was more than 200 µM.

With `COc1cc(-c2cc(-c3ccccc3)nc(-c3c(OC)ccc4c(C)cc(=O)oc34)c2)cc(OC)c1OC`, the EC50 was more than 200 µM and the IC50 is more than 200 µM.

Turning to `O=c1oc2ccccc2c(O)c1/C=N\c1nc(-c2ccc(O)c(O)c2)cs1`, the EC50 is more than 200 µM and the IC50 was determined as 3.24 µM.

Regarding `O=C(O)C12C3C4C1C1C2C3C41C(=O)O` (stereo not drawn), the EC50 is more than 200 µM and the IC50 is more than 200 µM.

Take `N#CC1CCCCC1NC1(C#N)CCCCC1` (stereo not drawn): the EC50 is more than 195 µM and the IC50 was more than 195 µM.

As to `COc1cccc2c(NCCCN(C)C)c3c([N+](=O)[O-])ccc(OC)c3nc12`, the EC50 was more than 2 µM and the IC50 stood at 0.257 µM.

As to `Cc1cc(C(=O)N2CCN(Cc3ccccc3)CC2)c(C)o1`, the EC50 is more than 741 µM and the IC50 was 324 µM.

Take `O=c1[nH]cnc2cccc(Cl)c12`: the EC50 is more than 200 µM and the IC50 was more than 200 µM.

In the case of `CCOC(=O)C(C(=O)OCC)C(c1ccc(OC)cc1)N1CCN(C(c2ccc(OC)cc2)C(C(=O)OCC)C(=O)OCC)CC1` (stereo not drawn), the EC50 is more than 100 µM and the IC50 was more than 100 µM.

For the compound `CC(C)CCC(=O)c1ccoc1`, the EC50 was more than 1510 µM and the IC50 is more than 1510 µM.

Take `CCOC(=O)c1c(OCCCc2ccc(F)cc2)cc2ccc3ccccc3c2c1OCCCc1ccc(F)cc1`: the EC50 was more than 18.2 µM and the IC50 was more than 18.2 µM.

For the compound `CCCCOP(=S)(OCCCC)OCCCC`, the outcome was inactive.

In the case of `CC(=O)ONc1nn2cc(-c3ccccc3)nc2s1`, the EC50 was more than 200 µM and the IC50 is more than 200 µM.

With `CC(C)(C)c1cc(-c2c3nc(c(-c4cc(C(C)(C)C)cc(C(C)(C)C)c4)c4ccc([nH]4)c(-c4cc(C(C)(C)C)cc(C(C)(C)C)c4)c4nc(c(-c5cc(C(C)(C)C)cc(C(C)(C)C)c5)c5ccc2[nH]5)C=C4)C=C3)cc(C(C)(C)C)c1`, the EC50 is more than 33.9 µM and the IC50 was more than 33.9 µM.

For the compound `O=C(O)CCC(=O)NCCNC(=O)CCC(=O)O`, the EC50 is more than 955 µM and the IC50 is more than 955 µM.

For the compound `CN(C)c1ccc(/C=C/C(=O)C(C)(C)C)cc1`, the outcome was inactive.

For `CN(C)c1ccc(/C=C(\C#N)C(=O)O)cc1`, the EC50 was more than 437 µM and the IC50 is 219 µM.

On to `C=C1C(=O)OC2/C=C(\CO)C(OC(C)=O)CC(O)/C(C)=C/C(OC(=O)C(C)CC)C12` (stereo not drawn), for which the outcome was inactive.

Take `O=c1ccc2c([N+](=O)[O-])cc([N+](=O)[O-])c(O)c2[nH]1`: the outcome was inactive.

Take `CCOC(=O)C1(C(=O)OCC)CC1(C(=O)OCC)C(=O)OCC`: the result was inactive.

On to `CC1(C)CC(=O)C(/C(=N/NC(=S)NN)C(=O)Nc2nc3ccc([N+](=O)[O-])cc3s2)C(=O)C1`, for which the EC50 was more than 53.7 µM and the IC50 is more than 53.7 µM.

Consider `COc1ccc(-n2nc(C)cc(N)c2=O)cc1`, for which the EC50 was more than 1070 µM and the IC50 was more than 1070 µM.

As for `COc1ccc(-n2c(N)c(C#N)c(C#N)c2-c2cccc([N+](=O)[O-])c2)cc1`, the EC50 was more than 200 µM and the IC50 was 186 µM.

For the compound `CCCCCC(=O)Nc1n[nH]nc1C#N`, the EC50 was more than 200 µM and the IC50 was more than 200 µM.

For `COC(=O)[C@@H]1Cc2ccc(OC)c(c2)OCCC(=O)N1`, the EC50 was more than 200 µM and the IC50 is more than 200 µM.

`C=C(C)c1ccc2c(c1)C(=O)C[C@@H]1[C@](C)(C#N)CCC[C@]21C`: the EC50 was more than 200 µM and the IC50 is 44.7 µM.

For `NNc1ncnc2c1ncn2C1OC(CO)CC1F` (stereo not drawn), the EC50 is more than 148 µM and the IC50 was more than 148 µM.

With `Cc1cc2ccccc2n1CC(=O)NCC(C)C`, the EC50 is more than 200 µM and the IC50 was more than 200 µM.
